In the supplement of paper PMC9244889:
Where a name gives a salt, the structure may show the parent alone.

How the values were obtained:
Vero E6 [1] = experiment: cytotoxicity relative to untreated cell control; higher = more toxic; conditions: 72 h, assay detail: uninfected
Procedure: (§1)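 Vero E6 C1008 cells (2e4 cells/well) were treated with a 3-fold dilution series of each drug (monotherapy), with or without live SARS-CoV-2 (propagated original strain, 100 TCID50). After 72 h at 37 °C, viability was read with Viral ToxGlo (ATP luminescence). %Inhibition of virus-induced CPE and %Cytotoxicity (uninfected) were normalised to cell and virus controls. Triplicates. The paper excluded %Inhibition points with >25% cytotoxicity from its curve fits.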

Vero E6 [2] = experiment: inhibition of SARS-CoV-2-induced cytopathic effect relative to cell and virus controls; higher = more antiviral protection; conditions: 72 h, virus: SARS-CoV-2 propagated original strain, 100 TCID50, assay detail: infected
Procedure: as §1

Cc1ccc(NC(=O)c2ccc(CN3CCN(C)CC3)cc2)cc1Nc1nc(-c2cccnc2)cs1 [masitinib]
Conditions | cytotoxicity, Vero E6 [1] [%] | inhibition of SARS-CoV-2-induced cytopathic effect, Vero E6 [2] [%]
0.000564503 µM | -15.3 | 0.87
0.00169351 µM | -17.5 | 1.03
0.00508053 µM | -21.6 | 2.14
0.0152416 µM | -16.3 | 1.2
0.0457247 µM | -19.4 | 0.66
0.137174 µM | -17.8 | 0.458
0.411523 µM | -19.8 | 3.69
1.23457 µM | -15.2 | 8.75
3.7037 µM | 4.4 | 42.8
11.1111 µM | 83.4 | 18.1
33.3333 µM | 99.617 | -7.42
100 µM | 99.831 | -17.86

N=C(N)Nc1ccc(C(=O)Oc2ccc3cc(C(=N)N)ccc3c2)cc1 [nafamostat mesylate]
Conditions | cytotoxicity, Vero E6 [1] [%] | inhibition of SARS-CoV-2-induced cytopathic effect, Vero E6 [2] [%]
56.45 pM | -10.2 | 1.36
0.000169351 µM | -7.59 | 0.555
0.000508053 µM | -1.77 | 1.31
0.00152416 µM | -4.85 | 0.363
0.00457247 µM | -6 | 0.453
0.0137174 µM | -9.55 | 0.391
0.0411523 µM | -7.66 | -0.525
0.123457 µM | -5.32 | -0.383
0.37037 µM | 1.08 | 0.358
1.11111 µM | -2.6 | 0.841
3.33333 µM | 1.59 | 0.526
10 µM | -0.485 | -0.288

CCC(CC)COC(=O)[C@H](C)N[P@](=O)(OC[C@H]1O[C@@](C#N)(c2ccc3c(N)ncnn23)[C@H](O)[C@@H]1O)Oc1ccccc1 [remdesivir]
Conditions | cytotoxicity, Vero E6 [1] [%] | inhibition of SARS-CoV-2-induced cytopathic effect, Vero E6 [2] [%]
0.000564503 µM | -22.9 | 1.31
0.00169351 µM | -17.3 | 1.17
0.00508053 µM | -11.8 | -0.59
0.0152416 µM | -6.94 | -0.693
0.0457247 µM | -6.5 | -0.335
0.137174 µM | -4.51 | 1.45
0.411523 µM | -1.99 | 6.62
1.23457 µM | -7.93 | 42.2
3.7037 µM | -2.61 | 111
11.1111 µM | 2.25 | 108
33.3333 µM | 9.25 | 96.6
100 µM | 59.6 | 44.1

CC(C)c1nc(CN(C)C(=O)N[C@H](C(=O)N[C@@H](Cc2ccccc2)C[C@H](O)[C@H](Cc2ccccc2)NC(=O)OCc2cncs2)C(C)C)cs1 [ritonavir]
Conditions | cytotoxicity, Vero E6 [1] [%] | inhibition of SARS-CoV-2-induced cytopathic effect, Vero E6 [2] [%]
0.00112901 µM | -15.2 | 2.5
0.00338702 µM | -13.3 | 3.51
0.0101611 µM | -27.3 | 1.73
0.0304832 µM | -22.5 | 0.79
0.0914495 µM | -33.3 | 2.39
0.274348 µM | -28.6 | 0.802
0.823045 µM | -22 | 1.81
2.46914 µM | -21.4 | 1.96
7.40741 µM | -27.3 | 2.22
22.2222 µM | -38.7 | 7.59
66.6667 µM | 8.14 | 2.75
200 µM | 69.7 | -2.18

O=C(/C=C\n1cnc(-c2cc(C(F)(F)F)cc(C(F)(F)F)c2)n1)NNc1cnccn1 [selinexor]
Conditions | cytotoxicity, Vero E6 [1] [%] | inhibition of SARS-CoV-2-induced cytopathic effect, Vero E6 [2] [%]
0.000564503 µM | 14.6 | 1.79
0.00169351 µM | 14.9 | 0.365
0.00508053 µM | 7.61 | -1.85
0.0152416 µM | 7.88 | -2.96
0.0457247 µM | 29.1 | -4.3
0.137174 µM | 23.4 | -3.81
0.411523 µM | 35.6 | -3.25
1.23457 µM | 47.2 | -2.87
3.7037 µM | 48.93 | -1.23
11.1111 µM | 44.1 | 8.51
33.3333 µM | 89.1 | -1.32
100 µM | 99.74 | -15.08

CCC[C@H](NC(=O)[C@@H]1[C@H]2CCC[C@H]2CN1C(=O)[C@@H](NC(=O)[C@@H](NC(=O)c1cnccn1)C1CCCCC1)C(C)(C)C)C(=O)C(=O)NC1CC1 [telaprevir]
Conditions | cytotoxicity, Vero E6 [1] [%] | inhibition of SARS-CoV-2-induced cytopathic effect, Vero E6 [2] [%]
0.000564503 µM | 0.259 | 0.117
0.00169351 µM | -0.00145 | 1.28
0.00508053 µM | -4.54 | -0.629
0.0152416 µM | -3.42 | -0.222
0.0457247 µM | -3.36 | 0.129
0.137174 µM | -8.35 | -0.93
0.411523 µM | -3.53 | -0.643
1.23457 µM | -4.1 | 1.01
3.7037 µM | -6.16 | 0.773
11.1111 µM | -1.51 | 0.394
33.3333 µM | 17.2 | -2.07
100 µM | 80.5 | 17.4
